Values quoted from earlier work in publication PMC10254170, “Diastereoselective Synthesis of the Borylated D-Galactose Monosaccharide 3-Boronic-3-Deoxy-D-Galactose and Biological Evaluation in Glycosidase Inhibition and in Cancer for Boron Neutron Capture Therapy (BNCT)” (Molecules, 2023).

Tested on: human
Conditions: 5 min; cited from earlier work

In the case of `c1ccccc1` [benzene], the LCLO is listed as 20,000 ppm.
